According to patent US20060128675A1, “Method for monitoring the effectiveness of teracycline in the treatment of asthma” (priority 2002, published 2006):

Key:
[1] = system: IgE production by stimulated PBMC from asthmatic subjects; assay: IgE production in vitro by anti-CD40 mAb + rhIL-4 stimulated PBMC from asthmatic subjects (IgE ELISA of supernatants); type: cell-based, human; settings: 10 day culture; for IgE: anti-CD40 mAb 1 ug/ml + rhIL-4 200 U/ml, ± SE, 5 asthmatic subjects; for inhibition at 0.1 µg/mL / inhibition at 1 µg/mL / inhibition at 10 µg/mL: Homo sapiens, PBMC, 240 h, versus anti-CD40 + rhIL-4 without treatment
Method: (§1) PBMC were separated from blood on a Ficoll-Paque (Pharmacia, Piscataway, N.J.) gradient (density 1.077). The PBMC were carefully removed using a transfer pipette (VWR Scientific, San Francisco, Calif.). Cells were washed twice in RPMI-1640 medium (GIBCO/BRL, Grand Island, N.Y.), resuspended in RPMI (3 ml), and counted on a hemocytometer (Fisher Scientific, Springfield, N.J.). Viability was >98%, as judged by trypan blue exclusion.
Studies of IgE responses induced in vitro were carried out according to the method of Sampson and Buckley in J. Immunol 1981, 127: 829-834. Briefly, PBMC (1.5×10^6 in 1 ml) were cultured +anti-CD40 mAb (1 ug/ml) (BD Pharmingen, San Diego, Calif.), ± recombinant human interleukin-4 (rhIL-4) (200 U/ml) (Genzyme Corp., Boston, Mass.), in the presence or absence of varying concentrations of either minocycline (Lederle Parenterals Inc., Carolina, Puerto Rico) or doxycycline (American Pharmaceutical Partner Inc., Schaumburg, Ill.), 0.1, 1.0, 10 ug/ml) for 0, 3, and 10 days at 37° C. in complete medium in a humidified 4% CO2 atmosphere. Cell viability was >98%, as judged by trypan blue exclusion, on day 10.
Antibiotics were reconstituted in sterile dH2O, according to manufacturer's recommendations. Complete medium contained RPMI-1640 (Fisher Scientific) and was supplemented with N-2-hydroxyethylpiperazine-N′-2-ethanesulfonic acid buffer (HEPES) (25 mM) (Fisher Scientific), penicillin (100 U/ml) (GIBCO/BRL), streptomycin (100 ug/ml) (Eli Lilly and Co., Indianapolis, Ind.), L-glutamine (2 mM) (GIBCO/BRL), and 10% Fetal Calf Serum (FCS) (GIB CO/BRL). The concentration of rhIL-4 in culture was within 1 bog of physiologic relevance (<100 U/ml), according to bioassay data provided by supplier.
For the in vitro quantitative determination of IgE content in cell culture supernatants, solid phase sandwich enzyme linked immunosorbent assays (ELISAs) were performed using IgE ELISA Test Kits (Abexon Trend, Ramsey, Minn.). All ELISAs were performed according to the manufacturer's recommended procedure. Specimens were analyzed in duplicate and a standard curve was derived from known concentrations of IgE. Plates were read using an automated microplate reader (Model ELX800) (Bio-Tek Instruments, Inc., Winooski, Vt.), with a 450-nm measurement filter. Optical densities were converted to IU/ml and/or ng/ml. (1 IU=2.4 ng/IgE protein).

[2] = system: IgE production by PBMC from non asthmatic subjects; assay: IgE production in vitro by anti-CD40 mAb + rhIL-4 stimulated PBMC from non asthmatic subjects; type: cell-based, human; settings: anti-CD40/rhIL-4
Method: as §1
Studies of IgE responses induced in vitro were carried out according to the method of Sampson and Buckley in J. Immunol 1981, 127: 829-834. […]
For the in vitro quantitative determination of IgE content in cell culture supernatants, solid phase sandwich enzyme linked immunosorbent assays (ELISAs) were performed using IgE ELISA Test Kits (Abexon Trend, Ramsey, Minn.). […] Specimens were analyzed in duplicate and a standard curve was derived from known concentrations of IgE. Plates were read using an automated microplate reader (Model ELX800) (Bio-Tek Instruments, Inc., Winooski, Vt.), with a 450-nm measurement filter. […]

[3] = system: rheumatoid arthritis (RA) patients; settings: mild and moderate RA patients; cited from earlier work

SMILES	IgE ([1]; 0.1 ug/ml)	IgE ([1]; 1.0 ug/ml)	IgE ([1]; 10 ug/ml)	inhibition at 0.1 µg/mL ([1]; 0.1 ug/ml)	inhibition at 1 µg/mL ([1]; 1.0 ug/ml)	inhibition at 10 µg/mL ([1]; 10 ug/ml)	effect on IgE responses of PBMC of non asthmatic donors [2]	side effects [3]
C[C@H]1c2cccc(O)c2C(=O)C2=C(O)[C@]3(O)C(=O)C(C(N)=O)=C(O)[C@@H](N(C)C)[C@@H]3[C@@H](O)[C@@H]21 [doxycycline]	20 ± 9 ng/mL	14 ± 7 ng/mL	5 ± 2 ng/mL	29%	50%	83%	no effect	
CN(C)c1ccc(O)c2c1C[C@H]1C[C@H]3[C@H](N(C)C)C(O)=C(C(N)=O)C(=O)[C@@]3(O)C(O)=C1C2=O [minocycline]	16 ± 5 ng/mL	18 ± 7 ng/mL	5 ± 2 ng/mL	43%	36%	83%	no effect	no side effects
